Read-outs that look alike come from different tables or passages of the source.
Legend:
[1] = system: human tumor cell xenografts in mice; design: method as in El Bawab S, personal communication; conditions: defined by preclinical modeling; ref El Bawab S, personal communication; cited from earlier work
[2] = system: patient-derived renal cell carcinoma xenografts; design: method as in earlier work; conditions: with sunitinib, cabozantinib, axitinib; Friese-Hamim M, personal communication; cited from earlier work
advanced solid tumors [3] = assay: Antitumor activity by RECIST v1.1; type: in vivo, human
Protocol: Efficacy endpoints included best overall response [BOR: complete response (CR), partial response (PR), stable disease (SD), or progressive disease] according to the RECIST v1.1. criteria ([20]), clinical benefit (defined as CR, PR, or SD for ≥12 weeks) and progression-free survival (PFS). PFS was defined as time from first dose to objective disease progression or death, whichever occurred first. CT scans or MRI were performed predose to document the baseline tumor status using the most appropriate criteria for the malignancy type. Target and non-target lesions were selected on the basis of the initial scan. Clinical efficacy was assessed by the investigators according to RECIST v1.1 every two cycles (starting on day 1 of cycle 3).
For the efficacy analysis, objective response and clinical benefit were summarized and 95% exact Clopper–Pearson confidence intervals (CI) were estimated ([21]). Kaplan–Meier estimates were calculated for PFS and the CI for the median PFS was calculated according to Brookmeyer and Crowley ([22]).

MetAP2 [4] = assay: Met-EF1α pharmacodynamic biomarker in tumor biopsies; type: in vivo, human; conditions: cycle 2, day 1
Description: (§1) Tumor biopsies were collected during the screening period and on cycle 2, day 1. White blood cell (WBC) samples were collected during the screening period, predose on days 1, 2, 8, and 15 of cycle 1 and postdose on days 1 and 15 of cycle 1. In addition, WBC samples were collected predose on days 1 and 15 of cycle 2.
(§2) No formal significance level was defined for this study and all analyses were considered descriptive.

MetAP2 [5] = assay: Met-EF1α pharmacodynamic biomarker in white blood cells; type: in vivo, human; conditions: 12 mg once daily and higher, from cycle 1, day 15 onward; no obvious dose correlation
Description: as §1, §2

advanced solid tumors [6] = conditions: patients with advanced solid tumors; cited from earlier work
[7] = system: metastatic renal carcinoma; design: method as in PMID 10561320; conditions: phase II, patients with metastatic renal carcinoma; cited from earlier work
[8] = cited from earlier work
[9] = cited from earlier work; remark: listed apart in the source

## O=C(NCc1cc(F)cc(F)c1)[C@@]1(O)CCN(c2ccc3[nH]ccc3c2)C1=O [M8891]
[1]
  Target Met-EF1α level expected to be correlated with efficacy: 125 μg/mg protein
[2]
  Antitumor activity in combination with VEGFR-targeted TKIs: strong and durable antitumor activity
Advanced solid tumors [3]; 7 patients with BOR of SD
  Duration of stable disease: 42 to 123 days
Advanced solid tumors [3]; all doses, n = 27
  Objective responses: no objective responses
MetAP2 [4]; 7 to 35 mg once daily
  Met-EF1α accumulation in tumors: tended to increase up to 35 mg once daily in a dose-dependent manner
MetAP2 [4]; ≥35 mg once daily
  Met-EF1α levels in tumor: ≥ 125 μg/mg protein
MetAP2 [5]
  Pharmacodynamic response in WBCs: low and variable pharmacodynamic response

## CO[C@@H](C(=O)N[C@H]1CC[C@@H](OC(=O)C2CCCCC2)CNC1=O)[C@H](O)[C@@H](O)[C@H](O)/C=C/C(C)(C)C [LAF389]
Advanced solid tumors [6]
  Objective responses: failed to show any objective responses

## CO[C@@H]1[C@H](OC(=O)NC(=O)CCl)CC[C@]2(CO2)[C@H]1[C@@]1(C)O[C@@H]1CC=C(C)C [TNP-470]
[7]
  Objective responses: failed to show any significant objective responses
[8]
  Neurotoxicity in phase I studies: considerable neurotoxicity
[9]
  Pharmacokinetic variability in phase I studies: high pharmacokinetic variability

Source: PMC10448909 (Cancer Research Communications, 2023)
